Test results published in patent publication US20140275102A1, “Solid State Forms of 6-[4-[3-((R)-2-Methylpyrrolidine-1-yl)-propoxy]phenyl] 2H-pyridazine-3-one Hydrochloride” (Cephalon Inc., priority 2013, published 2014).

Experiments:
Type in all cases: physicochemical
[1] = Stability to mechanical stress (grinding, XRPD); settings: after thirty minutes of grinding
Experimental: A Wig-1-Bug (Piketech, USA) was used to grind Forms A1 and H-4A1. Each sample (50 mg) was ground for periods of 5, 10, 15 and 30 minutes. Each grinding was carried out in a 2.82 cm^3 container using 0.9 g stainless steel ball ([…]). The vial was swung through a 6.5° arc at 3200 rpm, causing the ball to strike the end of the vial at over 100 Hz.

[2] = Variable temperature XRPD (VT-XRPD)
Experimental: Variable temperature studies were performed with an Anton Paar TTK450 temperature chamber under computer control through an Anton Paar TCU100 temperature control unit. Typically the measurements were done with a nitrogen flow through the camera. Two measurement schemes were used, restricted and continuous. In the restricted mode, measurements were made, only after the TK450 chamber reached the requested temperature. In the continuous mode, the sample was heated at 10° C./minute and fast scans were measured as the temperature changed. After the requested temperature was reached, the sample was cooled at 35° C./minute and a slow scan measured 25° C. The temperatures chosen were based on DSC results. For the diffractometer set-up a 10 mm beam mask, 0.04 radian Soller slits and fixed (1⁄4°) divergence and anti-scatter (1⁄8°) slits were inserted on the incident beam side. A fixed 0.10 mm receiving slit, 0.04 radian Soller slits and a 0.02 mm Nickel filter were inserted on the diffracted beam side. […] A variable temperature study was performed for Form A1 according to the protocol set out in II above.

[3] = Gravimetric Vapor Sorption (GVS); settings: for Moisture uptake / XRPD analysis of the after GVS sample: GVS 70-0-90% RH
Experimental: Gravimetric Vapor Sorption experiments have been carried out using the DVS-HT instrument (Surface Measurement Systems, London, UK). This instrument measures the uptake and loss of vapor gravimetrically using a recording ultra-microbalance with a mass resolution of ±0.1 μg. […] The desired temperature is maintained at ±0.1° C. […] (3 cycles). The DVS experiment was started at 70% RH (red line) to ensure that there was no moisture loss. The sample was kept at 70% RH for 2 hours. […] After each cycle the moisture uptake decreases to 21, 15, and 2.3% respectively at 90% RH. Significant polymorphic changes were observed by XRPD analysis of the “after GVS” samples.

[4] = Solid-solid transition on storage at controlled humidity, 25° C. (XRPD)
Experimental: Approximately 100 mg of Form A1 was exposed to 100% RH at 25° C. over 1 day. Analysis by XRPD confirmed quantitative conversion of the material to Form […].

[5] = Solid state stress stability at 40° C./75% RH (XRPD, stability-indicating HPLC); settings: for Area Purity (%): 40° C./75% RH, HPLC
Experimental: Powder X-Ray Diffraction patterns were recorded on a PANalytical X Pert Pro diffractometer equipped with an X celerator detector using Cu Kα radiation at 40 kV and 40 mA. Kα1 radiation is obtained with a highly oriented crystal (Ge111) incident beam monochromator. A 10 mm beam mask, and fixed (¼°) divergence and anti-scatter (⅛°) slits were inserted on the incident beam side. A fixed 0.10 mm receiving slit was inserted on the diffracted beam side. […] The sample was spread on silicon zero background (ZBG) plate for the measurement. The sample was rotated at 4°/min on a PANalytical PW3064 Spinner.
Typically 10 μL aliquots of the sample solutions were diluted to 1 mL with acetonitrile and the assay concentrations were determined from an average of duplicate injections using the following HPLC method. The purity and impurity analyses are done using conventional HPLC.
Stress stability studies were performed to assess the influence of temperature and humidity on stability of Forms A1 and H4A1. A stability-indicating HPLC assay method was developed for quantification of Compound 1. The developed method, described above in section VII, is specific, accurate, precise and robust.

SMILES: C[C@@H]1CCCN1CCCOc1ccc(-c2ccc(=O)[nH]n2)cc1.Cl [Form A1, 6-[4-[3-((R)-2-methylpyrrolidine-1-yl)-propoxy]phenyl]2H-pyridazine-3-one hydrochloride]
- Change in crystal form on grinding (XRPD) [1]: did not generate a change in crystal form
- Crystallinity by XRPD after grinding [1]: crystallinity had been significantly reduced
- Solid-solid transformation on heating (VT-XRPD) ([2]; temperature range of 20° C. to 250° C.): No solid-solid transformation was observed
- Hydrate formation under GVS conditions ([3]; GVS, 0-90% RH cycles): did not appear to form a hydrate
- Hygroscopicity (adsorption and desorption curves) ([3]; GVS, 0-90% RH cycles): not hygroscopic
- Amount of moisture adsorbed ([3]; GVS, at 90% RH): approximately 1.8%
- Amount of moisture adsorbed ([3]; GVS, relative humidity not printed (below 90% RH)): less than 0.8%
- XRPD before and after GVS ([3]; after GVS, 0-90% RH cycles): no significant changes after GVS
- XRPD after exposure to humidity ([4]; 100% RH at 25° C. over 1 day): quantitative conversion of the material to Form H4A1
- Changes on storage as assessed by XRPD ([5]; 4 weeks of storage at 40 degrees C. at 75% relative humidity): No significant changes
- Chemical degradation ([5]; 40° C./75% RH after 4 weeks): chemical degradation was not observed
- Water uptake from the environment in the solid state ([5]; 40° C./75% RH after 4 weeks): not observed to take up water
- Area Purity (%) ([5]; 0 days, hydrochloride): 99.5%
- Area Purity (%) ([5]; 7 days, hydrochloride): 99.6%
- Area Purity (%) ([5]; 14 days, hydrochloride): 99.7%
- Area Purity (%) ([5]; 28 days): 99.5%

SMILES: C[C@@H]1CCCN1CCCOc1ccc(-c2ccc(=O)[nH]n2)cc1.Cl [Form B1, 6-[4-[3-((R)-2-methylpyrrolidine-1-yl)-propoxy]phenyl]2H-pyridazine-3-one hydrochloride]
- Temperature at which polymorphic transformation to Form A1 was observed (VT-XRPD) ([2]; Form B1 made by dehydrating Form H4A1 at 25-100° C., 0% RH): 220 °C

SMILES: C[C@@H]1CCCN1CCCOc1ccc(-c2ccc(=O)[nH]n2)cc1.Cl [Form H4A1, 6-[4-[3-((R)-2-methylpyrrolidine-1-yl)-propoxy]phenyl]2H-pyridazine-3-one hydrochloride]
- Moisture uptake ([3]; at 90% RH, first cycle): 21%
- Moisture uptake ([3]; at 90% RH, second cycle): 15%
- Moisture uptake ([3]; at 90% RH, third cycle): 2.3%
- XRPD analysis of the after GVS sample ([3]; first cycle): mixture of Forms A1 and H4A1
- XRPD analysis of the after GVS sample ([3]; second cycle): mixture of Forms A1 and H4A1
- XRPD analysis of the after GVS sample ([3]; third cycle): Complete conversion of Form H4A1 to Form A1
- XRPD after storage ([4]; 25° C./0% RH for 7 days): quantitative conversion of the material to Form A1
- Area Purity (%) ([5]; 0 days, hydrochloride): 99.6%
- Area Purity (%) ([5]; 7 days, hydrochloride): 99.5%
- Area Purity (%) ([5]; 14 days, hydrochloride): 99.5%
- Area Purity (%) ([5]; 28 days): 99.5%
- Physical and chemical stability on storage ([5]; 28 days at 40° C. and 75% RH): physically and chemically stable
